Key:
Experiment in all cases: relative viability (nuclei count vs DMSO), 5 days (fraction); higher = more cells survive
A-427 = tested on: A-427
In short: (§1)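 Nuclei were stained with Hoechst during a one-step fixation (final 0.05% Triton X-100, 1% formaldehyde, 1 ug/ml Hoechst) carried out 5 days after dosing, then counted on 4× images. The cells, lung cancer lines in 1536-well plates, had been dosed by pin tool the day after seeding with one drug alone or a fixed anchor-drug dose plus five library-drug doses (not always all listed) in √10 steps. Relative viability is the nuclei count in treated wells divided by that in vehicle wells, and each value is the median of duplicate plates.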

ABC-1 = tested on: ABC-1
In short: as §1

COR-L23 = tested on: COR-L23
In short: as §1

EMC-BAC-2 = tested on: EMC-BAC-2
In short: as §1

HARA = tested on: HARA
In short: as §1

HOP-62 = tested on: HOP-62
In short: as §1

LK-2 = tested on: LK-2
In short: as §1

LXF-289 = tested on: LXF-289
In short: as §1

NCI-H1792 = tested on: NCI-H1792
In short: as §1

NCI-H1793 = tested on: NCI-H1793
In short: as §1

NCI-H1944 = tested on: NCI-H1944
In short: as §1

NCI-H1993 = tested on: NCI-H1993
In short: as §1

NCI-H2009 = tested on: NCI-H2009
In short: as §1

NCI-H2170 = tested on: NCI-H2170
In short: as §1

NCI-H2228 = tested on: NCI-H2228
In short: as §1

NCI-H3122 = tested on: NCI-H3122
In short: as §1

NCI-H596 = tested on: NCI-H596
In short: as §1

NCI-H727 = tested on: NCI-H727
In short: as §1

PC-3 [JPC-3] = tested on: PC-3 [JPC-3]
In short: as §1

SK-LU-1 = tested on: SK-LU-1
In short: as §1

SK-MES-1 = tested on: SK-MES-1
In short: as §1

SW 1573 = tested on: SW 1573
In short: as §1

SW 900 = tested on: SW 900
In short: as §1

CC1(C)CCC(c2ccc(Cl)cc2)=C(CN2CCN(c3ccc(C(=O)NS(=O)(=O)c4ccc(N[C@H](CCN5CCOCC5)CSc5ccccc5)c(S(=O)(=O)C(F)(F)F)c4)cc3)CC2)C1 [Navitoclax] + N=C(N)NC(=N)NCCc1ccccc1 [Phenformin] (partner 250 µM)
relative viability (A-427; first compound 0.005 µM): 0.342 | relative viability (A-427; first compound 0.01581 µM): 0.359 | relative viability (A-427; first compound 0.05 µM): 0.179 | relative viability (A-427; first compound 0.1581 µM): 0.287 | relative viability (A-427; first compound 0.5 µM): 0.273 | relative viability (ABC-1; first compound 0.005 µM): 0.245 | relative viability (ABC-1; first compound 0.01581 µM): 0.292 | relative viability (ABC-1; first compound 0.05 µM): 0.277 | relative viability (ABC-1; first compound 0.1581 µM): 0.257 | relative viability (ABC-1; first compound 0.5 µM): 0.215 | relative viability (COR-L23; first compound 0.005 µM): 0.409 | relative viability (COR-L23; first compound 0.01581 µM): 0.494 | relative viability (COR-L23; first compound 0.05 µM): 0.516 | relative viability (COR-L23; first compound 0.1581 µM): 0.438 | relative viability (COR-L23; first compound 0.5 µM): 0.447 | relative viability (EMC-BAC-2; first compound 0.005 µM): 0.496 | relative viability (EMC-BAC-2; first compound 0.01581 µM): 0.604 | relative viability (EMC-BAC-2; first compound 0.05 µM): 0.523 | relative viability (EMC-BAC-2; first compound 0.1581 µM): 0.498 | relative viability (EMC-BAC-2; first compound 0.5 µM): 0.489 | relative viability (HARA; first compound 0.005 µM): 0.491 | relative viability (HARA; first compound 0.01581 µM): 0.554 | relative viability (HARA; first compound 0.1581 µM): 0.415 | relative viability (HARA; first compound 0.5 µM): 0.477 | relative viability (HOP-62; first compound 0.005 µM): 0.639 | relative viability (HOP-62; first compound 0.01581 µM): 0.673 | relative viability (HOP-62; first compound 0.05 µM): 0.65 | relative viability (HOP-62; first compound 0.1581 µM): 0.669 | relative viability (HOP-62; first compound 0.5 µM): 0.702 | relative viability (LK-2; first compound 0.005 µM): 0.417 | relative viability (LK-2; first compound 0.01581 µM): 0.551 | relative viability (LK-2; first compound 0.05 µM): 0.379 | relative viability (LK-2; first compound 0.1581 µM): 0.353 | relative viability (LK-2; first compound 0.5 µM): 0.395 | relative viability (LXF-289; first compound 0.005 µM): 0.524 | relative viability (LXF-289; first compound 0.01581 µM): 0.531 | relative viability (LXF-289; first compound 0.05 µM): 0.498 | relative viability (LXF-289; first compound 0.1581 µM): 0.506 | relative viability (LXF-289; first compound 0.5 µM): 0.5 | relative viability (NCI-H1792; first compound 0.005 µM): 0.258 | relative viability (NCI-H1792; first compound 0.01581 µM): 0.179 | relative viability (NCI-H1792; first compound 0.5 µM): 0.112 | relative viability (NCI-H1793; first compound 0.005 µM): 0.527 | relative viability (NCI-H1793; first compound 0.01581 µM): 0.445 | relative viability (NCI-H1793; first compound 0.1581 µM): 0.309 | relative viability (NCI-H1793; first compound 0.5 µM): 0.313 | relative viability (NCI-H1944; first compound 0.005 µM): 0.183 | relative viability (NCI-H1944; first compound 0.01581 µM): 0.191 | relative viability (NCI-H1944; first compound 0.05 µM): 0.182 | relative viability (NCI-H1944; first compound 0.1581 µM): 0.211 | relative viability (NCI-H1944; first compound 0.5 µM): 0.146 | relative viability (NCI-H1993; first compound 0.005 µM): 0.545 | relative viability (NCI-H1993; first compound 0.01581 µM): 0.498 | relative viability (NCI-H1993; first compound 0.05 µM): 0.629 | relative viability (NCI-H1993; first compound 0.1581 µM): 0.587 | relative viability (NCI-H1993; first compound 0.5 µM): 0.616 | relative viability (NCI-H2009; first compound 0.005 µM): 0.495 | relative viability (NCI-H2009; first compound 0.01581 µM): 0.519 | relative viability (NCI-H2009; first compound 0.05 µM): 0.435 | relative viability (NCI-H2009; first compound 0.1581 µM): 0.47 | relative viability (NCI-H2009; first compound 0.5 µM): 0.484 | relative viability (NCI-H2170; first compound 0.005 µM): 0.442 | relative viability (NCI-H2170; first compound 0.01581 µM): 0.47 | relative viability (NCI-H2170; first compound 0.05 µM): 0.391 | relative viability (NCI-H2170; first compound 0.1581 µM): 0.42 | relative viability (NCI-H2170; first compound 0.5 µM): 0.347 | relative viability (NCI-H2228; first compound 0.005 µM): 0.35 | relative viability (NCI-H2228; first compound 0.01581 µM): 0.385 | relative viability (NCI-H2228; first compound 0.1581 µM): 0.276 | relative viability (NCI-H2228; first compound 0.5 µM): 0.418 | relative viability (NCI-H3122; first compound 0.005 µM): 0.402 | relative viability (NCI-H3122; first compound 0.01581 µM): 0.423 | relative viability (NCI-H3122; first compound 0.05 µM): 0.306 | relative viability (NCI-H3122; first compound 0.1581 µM): 0.348 | relative viability (NCI-H3122; first compound 0.5 µM): 0.391 | relative viability (NCI-H596; first compound 0.005 µM): 0.742 | relative viability (NCI-H596; first compound 0.01581 µM): 0.71 | relative viability (NCI-H596; first compound 0.1581 µM): 0.67 | relative viability (NCI-H596; first compound 0.5 µM): 0.815 | relative viability (NCI-H727; first compound 0.01581 µM): 0.804 | relative viability (NCI-H727; first compound 0.1581 µM): 0.479 | relative viability (NCI-H727; first compound 0.5 µM): 0.394 | relative viability (PC-3 [JPC-3]; first compound 0.005 µM): 0.466 | relative viability (PC-3 [JPC-3]; first compound 0.01581 µM): 0.48 | relative viability (PC-3 [JPC-3]; first compound 0.05 µM): 0.516 | relative viability (PC-3 [JPC-3]; first compound 0.1581 µM): 0.453 | relative viability (PC-3 [JPC-3]; first compound 0.5 µM): 0.41 | relative viability (SK-LU-1; first compound 0.005 µM): 0.552 | relative viability (SK-LU-1; first compound 0.01581 µM): 0.608 | relative viability (SK-LU-1; first compound 0.05 µM): 0.501 | relative viability (SK-LU-1; first compound 0.1581 µM): 0.463 | relative viability (SK-LU-1; first compound 0.5 µM): 0.513 | relative viability (SK-MES-1; first compound 0.005 µM): 0.581 | relative viability (SK-MES-1; first compound 0.01581 µM): 0.746 | relative viability (SK-MES-1; first compound 0.05 µM): 0.684 | relative viability (SK-MES-1; first compound 0.1581 µM): 0.681 | relative viability (SK-MES-1; first compound 0.5 µM): 0.722 | relative viability (SW 1573; first compound 0.005 µM): 0.437 | relative viability (SW 1573; first compound 0.01581 µM): 0.503 | relative viability (SW 1573; first compound 0.05 µM): 0.358 | relative viability (SW 1573; first compound 0.1581 µM): 0.414 | relative viability (SW 1573; first compound 0.5 µM): 0.406 | relative viability (SW 900; first compound 0.005 µM): 0.484 | relative viability (SW 900; first compound 0.01581 µM): 0.638 | relative viability (SW 900; first compound 0.05 µM): 0.586 | relative viability (SW 900; first compound 0.1581 µM): 0.556 | relative viability (SW 900; first compound 0.5 µM): 0.41
